Reference: publication PMC5218480 (PLoS ONE, 2017)

Tested on: MV-4-11 cells
Test: Gene expression microarray analysis (Affymetrix PrimeView) and GSEA
Format: cell-based, human
Set-up: RFU PODN (11730768_x_at) / Fold change /veh PODN (11730768_x_at) / RFU LINC00158 (11744669_a_at) / Fold change /veh LINC00158 (11744669_a_at) / RFU DUSP10 (11751237_a_at) / Fold change /veh DUSP10 (11751237_a_at) / RFU ID3 (11757404_x_at) / Fold change /veh ID3 (11757404_x_at) / RFU PLEKHG5 (11737974_s_at) / Fold change /veh PLEKHG5 (11737974_s_at) / RFU LRRC4B (11730491_at) / Fold change /veh LRRC4B (11730491_at) / RFU GIMAP4 (11747438_a_at) / Fold change /veh GIMAP4 (11747438_a_at) / RFU KRT8 (11758183_x_at) / Fold change /veh KRT8 (11758183_x_at) / RFU CNN1 (11734310_a_at) / Fold change /veh CNN1 (11734310_a_at) / RFU VPS37D (11726825_at) / Fold change /veh VPS37D (11726825_at) / RFU C10orf10 (11716522_x_at) / Fold change /veh C10orf10 (11716522_x_at) / RFU KIR2DL2 /// KIR2DL4 /// KIR2DL5A /// KIR2DL5B /// KIR2DS1 /// KIR2DS2 /// KIR2DS3 /// KIR2DS4 /// KIR3DL3 /// KIR3DL3 /// KIR3DS1 (11738374_at) / Fold change /veh KIR2DL2 /// KIR2DL4 /// KIR2DL5A /// KIR2DL5B /// KIR2DS1 /// KIR2DS2 /// KIR2DS3 /// KIR2DS4 /// KIR3DL3 /// KIR3DL3 /// KIR3DS1 (11738374_at) / RFU C1QL1 (11718748_at) / Fold change /veh C1QL1 (11718748_at) / RFU TMPRSS4 (11747572_a_at) / Fold change /veh TMPRSS4 (11747572_a_at) / RFU HAMP (11756126_x_at) / Fold change /veh HAMP (11756126_x_at) / RFU RNFT2 (11725882_a_at) / Fold change /veh RNFT2 (11725882_a_at) / RFU NR4A2 (11747474_a_at) / Fold change /veh NR4A2 (11747474_a_at) / RFU ABCC12 (11746883_a_at) / Fold change /veh ABCC12 (11746883_a_at) / RFU TMEM136 (11760407_x_at) / Fold change /veh TMEM136 (11760407_x_at) / RFU CLDN22 /// WWC2 (11732394_at) / Fold change /veh CLDN22 /// WWC2 (11732394_at) / RFU HLA-DPB1 (11760878_x_at) / Fold change /veh HLA-DPB1 (11760878_x_at) / RFU SPINT1 (11716480_a_at) / Fold change /veh SPINT1 (11716480_a_at) / RFU GAP43 (11754022_s_at) / Fold change /veh GAP43 (11754022_s_at) / RFU A4GNT (11735810_at) / Fold change /veh A4GNT (11735810_at) / RFU PRB3 (11715151_x_at) / Fold change /veh PRB3 (11715151_x_at) / RFU TUBB4B (11761932_at) / Fold change /veh TUBB4B (11761932_at) / RFU CAPN14 (11732068_a_at) / Fold change /veh CAPN14 (11732068_a_at) / RFU TMCC2 (11721928_a_at) / Fold change /veh TMCC2 (11721928_a_at) / RFU IRGQ (11745062_a_at) / Fold change /veh IRGQ (11745062_a_at) / RFU FAM174B (11720279_a_at) / Fold change /veh FAM174B (11720279_a_at) / RFU TMPRSS4 (11748680_a_at) / Fold change /veh TMPRSS4 (11748680_a_at) / RFU FAM212B (11763350_a_at) / Fold change /veh FAM212B (11763350_a_at) / RFU PLEKHG5 (11743358_a_at) / Fold change /veh PLEKHG5 (11743358_a_at) / RFU ZSCAN30 (11745921_a_at) / Fold change /veh ZSCAN30 (11745921_a_at) / RFU CMKLR1 (11741424_a_at) / Fold change /veh CMKLR1 (11741424_a_at) / RFU LOC101060620 /// MAPK8IP1 (11723275_at) / Fold change /veh LOC101060620 /// MAPK8IP1 (11723275_at) / RFU SPTSSB (11747773_x_at) / Fold change /veh SPTSSB (11747773_x_at) / RFU PRSS12 (11739890_at) / Fold change /veh PRSS12 (11739890_at) / RFU BIN1 (11741810_x_at) / Fold change /veh BIN1 (11741810_x_at) / RFU WNT11 (11732464_a_at) / Fold change /veh WNT11 (11732464_a_at) / RFU C10orf10 (11716521_a_at) / Fold change /veh C10orf10 (11716521_a_at) / RFU C5orf56 (11738089_at) / Fold change /veh C5orf56 (11738089_at) / RFU CYB561 (11721691_x_at) / Fold change /veh CYB561 (11721691_x_at) / RFU ANKRD19P (11752326_a_at) / Fold change /veh ANKRD19P (11752326_a_at) / RFU OR2T12 /// OR2T33 /// OR2T8 (11738714_s_at) / Fold change /veh OR2T12 /// OR2T33 /// OR2T8 (11738714_s_at) / RFU VCAN (11748164_a_at) / Fold change /veh VCAN (11748164_a_at) / RFU JSRP1 (11732532_at) / Fold change /veh JSRP1 (11732532_at) / RFU KRTAP10-11 (11738290_x_at) / Fold change /veh KRTAP10-11 (11738290_x_at) / RFU MYO3A (11730013_a_at) / Fold change /veh MYO3A (11730013_a_at) / RFU EBF3 (11725865_a_at) / Fold change /veh EBF3 (11725865_a_at) / RFU CAMK2N1 (11719241_x_at) / Fold change /veh CAMK2N1 (11719241_x_at) / RFU C5orf56 (11738088_a_at) / Fold change /veh C5orf56 (11738088_a_at) / RFU OLFML3 (11715873_a_at) / Fold change /veh OLFML3 (11715873_a_at) / RFU LOC100653217 /// NTM (11731650_a_at) / Fold change /veh LOC100653217 /// NTM (11731650_a_at) / RFU MAPK11 (11762145_a_at) / Fold change /veh MAPK11 (11762145_a_at) / RFU FIZ1 (11724087_x_at) / Fold change /veh FIZ1 (11724087_x_at) / RFU OASL (11726364_x_at) / Fold change /veh OASL (11726364_x_at) / RFU SOX15 (11748057_x_at) / Fold change /veh SOX15 (11748057_x_at) / RFU CD79A (11719716_a_at) / Fold change /veh CD79A (11719716_a_at) / RFU HIST1H1D (11736915_at) / Fold change /veh HIST1H1D (11736915_at) / RFU CASKIN2 (11723855_a_at) / Fold change /veh CASKIN2 (11723855_a_at) / RFU LOC730098 (11760151_x_at) / Fold change /veh LOC730098 (11760151_x_at) / RFU OR4N2 (11742367_at) / Fold change /veh OR4N2 (11742367_at) / RFU PRRT2 (11749266_a_at) / Fold change /veh PRRT2 (11749266_a_at) / RFU SNX32 (11753110_a_at) / Fold change /veh SNX32 (11753110_a_at) / RFU CDHR5 (11726645_a_at) / Fold change /veh CDHR5 (11726645_a_at) / RFU RCAN1 (11760418_a_at) / Fold change /veh RCAN1 (11760418_a_at) / RFU FAM167A (11723789_a_at) / Fold change /veh FAM167A (11723789_a_at) / RFU FAM26E (11764081_at) / Fold change /veh FAM26E (11764081_at) / RFU ISYNA1 (11749810_s_at) / Fold change /veh ISYNA1 (11749810_s_at) / RFU ACY1 (11761880_at) / Fold change /veh ACY1 (11761880_at) / RFU 11764098_at / Fold change /veh 11764098_at / RFU SAMD14 (11745864_x_at) / Fold change /veh SAMD14 (11745864_x_at) / RFU NPB (11741838_a_at) / Fold change /veh NPB (11741838_a_at) / RFU TMPRSS6 (11731388_a_at) / Fold change /veh TMPRSS6 (11731388_a_at) / RFU KRTAP10-2 (11738614_at) / Fold change /veh KRTAP10-2 (11738614_at) / RFU ARHGAP8 /// PRR5-ARHGAP8 (11727945_x_at) / Fold change /veh ARHGAP8 /// PRR5-ARHGAP8 (11727945_x_at) / RFU KRTAP5-7 /// NADSYN1 (11734609_at) / Fold change /veh KRTAP5-7 /// NADSYN1 (11734609_at) / RFU RASL12 (11751679_a_at) / Fold change /veh RASL12 (11751679_a_at) / RFU CDKN2B (11736163_a_at) / Fold change /veh CDKN2B (11736163_a_at) / RFU PRF1 (11729649_at) / Fold change /veh PRF1 (11729649_at) / RFU, ZNF638 /// ZNF638-IT1 / Fold change vs veh, ZNF638 /// ZNF638-IT1 / RFU, PANK3 / Fold change vs veh, PANK3 / RFU, SH3YL1 / Fold change vs veh, SH3YL1 / RFU, ZEB2 / Fold change vs veh, ZEB2 / RFU, NRIP1 / Fold change vs veh, NRIP1 / RFU, PTTG1IP / Fold change vs veh, PTTG1IP / RFU, CAPN2 / Fold change vs veh, CAPN2 / RFU, MED14 / Fold change vs veh, MED14 / RFU, SNORA58 / Fold change vs veh, SNORA58 / RFU, C1orf63 / Fold change vs veh, C1orf63 / RFU, LRRFIP1 / Fold change vs veh, LRRFIP1 / RFU, NDUFAF7 / Fold change vs veh, NDUFAF7 / RFU, SLC12A2 / Fold change vs veh, SLC12A2 / RFU, IBTK / Fold change vs veh, IBTK / RFU, ESF1 / Fold change vs veh, ESF1 / Fold change vs veh, TMEM50B / RFU, TAOK1 / Fold change vs veh, TAOK1 / RFU, ACBD3 / Fold change vs veh, ACBD3 / RFU, TMA16 / Fold change vs veh, TMA16 / RFU, RWDD3 / Fold change vs veh, RWDD3 / RFU, BCAT1 / Fold change vs veh, BCAT1 / RFU, EDEM3 / Fold change vs veh, EDEM3 / RFU, TMEM33 / Fold change vs veh, TMEM33 / RFU, WDR75 / Fold change vs veh, WDR75 / RFU, AHCTF1 / Fold change vs veh, AHCTF1 / RFU, TFRC / Fold change vs veh, TFRC / RFU, ZDHHC17 / Fold change vs veh, ZDHHC17 / RFU, NOM1 / Fold change vs veh, NOM1 / RFU, ARL8B / Fold change vs veh, ARL8B / RFU, ZBTB11 / Fold change vs veh, ZBTB11 / RFU, TAMM41 / Fold change vs veh, TAMM41 / RFU, KIAA1704 /// LOC100996395 / Fold change vs veh, KIAA1704 /// LOC100996395 / RFU, ING1 / Fold change vs veh, ING1 / RFU, TRMT61B / Fold change vs veh, TRMT61B / RFU, FUBP3 / Fold change vs veh, FUBP3 / RFU, TP53 / Fold change vs veh, TP53 / RFU, TNKS2 / Fold change vs veh, TNKS2 / RFU, ZFP14 / Fold change vs veh, ZFP14 / RFU, ACTR2 / Fold change vs veh, ACTR2 / RFU, PPP3R1 / Fold change vs veh, PPP3R1 / RFU, PIK3R1 / Fold change vs veh, PIK3R1 / RFU, HNRNPA1 / Fold change vs veh, HNRNPA1 / RFU, RNF170 / Fold change vs veh, RNF170 / RFU, ZNF28 / Fold change vs veh, ZNF28 / RFU, RNGTT / Fold change vs veh, RNGTT / RFU, OGT / Fold change vs veh, OGT / RFU, BRD1 / Fold change vs veh, BRD1 / RFU, MARS / Fold change vs veh, MARS / RFU, ZNF655 / Fold change vs veh, ZNF655 / RFU, FAHD1 / Fold change vs veh, FAHD1 / RFU, BDP1 / Fold change vs veh, BDP1 / RFU, LRRCC1 / Fold change vs veh, LRRCC1 / RFU, ARID1A / Fold change vs veh, ARID1A / RFU, ZNF146 / Fold change vs veh, ZNF146 / RFU, ZNF330 / Fold change vs veh, ZNF330 / RFU, GPN3 / Fold change vs veh, GPN3 / RFU, C9orf123 / Fold change vs veh, C9orf123 / RFU, N4BP2L2 / Fold change vs veh, N4BP2L2 / RFU, ARFIP1 / Fold change vs veh, ARFIP1 / RFU, FAM179B / Fold change vs veh, FAM179B / RFU, BCL10 / Fold change vs veh, BCL10 / RFU, UHRF1BP1L / Fold change vs veh, UHRF1BP1L / RFU, BET1 / Fold change vs veh, BET1 / RFU, CNOT2 / Fold change vs veh, CNOT2 / RFU, ZNF268 / Fold change vs veh, ZNF268 / Fold change vs veh, ZNF507 / RFU, DGCR2 / Fold change vs veh, DGCR2 / RFU, WDSUB1 / Fold change vs veh, WDSUB1 / Fold change vs veh, HSP90B1 /// MIR3652 / RFU, ADSS / Fold change vs veh, ADSS / RFU, GK / Fold change vs veh, GK / RFU, ZNF148 / Fold change vs veh, ZNF148 / RFU, TAF9 / Fold change vs veh, TAF9 / RFU, SLC1A5 / Fold change vs veh, SLC1A5 / RFU, SLMO2 / Fold change vs veh, SLMO2 / RFU, ABCC4 / Fold change vs veh, ABCC4 / RFU, LOC101060439 /// RAP1B / Fold change vs veh, LOC101060439 /// RAP1B / RFU, RFX7 / Fold change vs veh, RFX7 / RFU, GTPBP10 / Fold change vs veh, GTPBP10 / RFU, CNEP1R1 / Fold change vs veh, CNEP1R1 / RFU, BIVM-ERCC5 /// ERCC5 / Fold change vs veh, BIVM-ERCC5 /// ERCC5 / RFU, ILF3 / Fold change vs veh, ILF3 / RFU 11762660_at / Fold change /veh 11762660_at / RFU VCAN (11757783_s_at) / Fold change /veh VCAN (11757783_s_at) / RFU DDX43 (11728927_at) / Fold change /veh DDX43 (11728927_at) / RFU KRT8 (11758188_x_at) / Fold change /veh KRT8 (11758188_x_at) / RFU NKD1 (11759106_at) / Fold change /veh NKD1 (11759106_at) / RFU SRD5A1 (11742802_a_at) / Fold change /veh SRD5A1 (11742802_a_at) / RFU TPSAB1 /// TPSB2 (11721975_s_at) / Fold change /veh TPSAB1 /// TPSB2 (11721975_s_at) / RFU GSTM3 (11746129_a_at) / Fold change /veh GSTM3 (11746129_a_at) / RFU IL23R (11737362_x_at) / Fold change /veh IL23R (11737362_x_at) / RFU TMEM51 (11727254_a_at) / Fold change /veh TMEM51 (11727254_a_at) / RFU PIWIL2 (11732686_x_at) / Fold change /veh PIWIL2 (11732686_x_at) / RFU ORM1 (11744905_x_at) / Fold change /veh ORM1 (11744905_x_at) / RFU CCDC152 (11743942_at) / Fold change /veh CCDC152 (11743942_at) / RFU ECM1 (11717891_a_at) / Fold change /veh ECM1 (11717891_a_at) / RFU IL23R (11748794_a_at) / Fold change /veh IL23R (11748794_a_at) / RFU TNFAIP8L3 (11732012_x_at) / Fold change /veh TNFAIP8L3 (11732012_x_at) / RFU MBOAT4 (11741988_at) / Fold change /veh MBOAT4 (11741988_at) / RFU 11764193_at / Fold change /veh 11764193_at / RFU TMEM53 (11763286_at) / Fold change /veh TMEM53 (11763286_at) / RFU MAGEB2 (11727129_at) / Fold change /veh MAGEB2 (11727129_at) / RFU TMEM200A (11744735_a_at) / Fold change /veh TMEM200A (11744735_a_at) / RFU CCDC152 (11751479_a_at) / Fold change /veh CCDC152 (11751479_a_at) / RFU FAM211A (11726209_a_at) / Fold change /veh FAM211A (11726209_a_at) / RFU RGS16 (11746705_a_at) / Fold change /veh RGS16 (11746705_a_at) / RFU VCAN (11755009_s_at) / Fold change /veh VCAN (11755009_s_at) / RFU RHOB (11743442_s_at) / Fold change /veh RHOB (11743442_s_at) / RFU RGS16 (11720943_a_at) / Fold change /veh RGS16 (11720943_a_at) / RFU RGS16 (11720944_at) / Fold change /veh RGS16 (11720944_at) / RFU, VPS4B / Fold change vs veh, VPS4B / RFU, CREB1 / Fold change vs veh, CREB1 / RFU, DNAJC13 / Fold change vs veh, DNAJC13 / RFU, GNAQ / Fold change vs veh, GNAQ / RFU, CDK5R1 / Fold change vs veh, CDK5R1 / RFU, ZRANB3 / Fold change vs veh, ZRANB3 / RFU, CUL4A / Fold change vs veh, CUL4A / RFU, CCNY / Fold change vs veh, CCNY / RFU, UFL1 / Fold change vs veh, UFL1 / RFU, COG3 / Fold change vs veh, COG3 / RFU, DIAPH2 / Fold change vs veh, DIAPH2 / RFU, SKA2 / Fold change vs veh, SKA2 / RFU, AFF3 / Fold change vs veh, AFF3 / RFU, LMF1 / Fold change vs veh, LMF1 / RFU, IPO11 / Fold change vs veh, IPO11 / RFU, DFFB / Fold change vs veh, DFFB / RFU, FOXP1 / Fold change vs veh, FOXP1 / RFU, CARD8 / Fold change vs veh, CARD8 / RFU, STRN3 / Fold change vs veh, STRN3 / RFU, ADK / Fold change vs veh, ADK / RFU, RASSF2 / Fold change vs veh, RASSF2 / RFU, WIPF1 / Fold change vs veh, WIPF1 / RFU, LARP1B / Fold change vs veh, LARP1B / RFU, RASA1 / Fold change vs veh, RASA1 / RFU, RB1 / Fold change vs veh, RB1 / RFU, PPFIA1 / Fold change vs veh, PPFIA1 / RFU, MAT2A / Fold change vs veh, MAT2A / RFU, CCT5 / Fold change vs veh, CCT5 / RFU, WDR92 / Fold change vs veh, WDR92 / RFU, CUX1 / Fold change vs veh, CUX1 / RFU, TTC7A / Fold change vs veh, TTC7A / RFU, TMEM135 / Fold change vs veh, TMEM135 / RFU, DEPTOR / Fold change vs veh, DEPTOR / RFU, CPM / Fold change vs veh, CPM / RFU, DNAJB6 / Fold change vs veh, DNAJB6 / RFU, CACNA2D3 / Fold change vs veh, CACNA2D3 / RFU, DTX4 / Fold change vs veh, DTX4 / RFU, TFCP2 / Fold change vs veh, TFCP2 / RFU, GMCL1 /// GMCL1P1 / Fold change vs veh, GMCL1 /// GMCL1P1 / RFU, AEBP2 / Fold change vs veh, AEBP2 / RFU, SNHG1 /// SNORD22 /// SNORD25 /// SNORD26 /// SNORD27 /// SNORD28 /// SNORD29 /// SNORD31 / Fold change vs veh, SNHG1 /// SNORD22 /// SNORD25 /// SNORD26 /// SNORD27 /// SNORD28 /// SNORD29 /// SNORD31 / Fold change (Aza/veh), C12orf56 (ProbeSet 11735607_a_at) / Fold change (ACY-1035/veh), C12orf56 (ProbeSet 11735607_a_at) / Fold change (Aza/veh), FGFR1OP (ProbeSet 11751329_s_at) / Fold change (ACY-1035/veh), FGFR1OP (ProbeSet 11751329_s_at) / Fold change (Aza/veh), VPS36 (ProbeSet 11739960_a_at) / Fold change (ACY-1035/veh), VPS36 (ProbeSet 11739960_a_at) / RFU SYPL1 (11715823_x_at) / Fold change /veh SYPL1 (11715823_x_at) / RFU IGFBP7 (11715501_s_at) / Fold change /veh IGFBP7 (11715501_s_at) / RFU REEP3 (11722064_at) / Fold change /veh REEP3 (11722064_at) / RFU IGLL1 (11728026_x_at) / Fold change /veh IGLL1 (11728026_x_at): dose or concentration left out as unconfirmed
Conditions: ProbeSet 11722463_a_at; LIST B

## Nc1ncn([C@@H]2O[C@H](CO)[C@@H](O)[C@H]2O)c(=O)n1 [azacitidine]
  RFU, TNKS2: 47.93 RFU
